# Laboratory results reported in patent publication US20240216352A1 (priority 2022, published 2024).
# Several values for one entry are separate records, joined by “and”; a condition that tells them apart may be missing. Identical values can stand only once.
# Assays:
# [1] = tested on: participants with IPF; test: Phase 2 study, IPF cohort: efficacy (ppFVC, FVC); format: in vivo, human; conditions: for Efficacy versus PBO (ppFVC, FVC): Week 26, overall population with and without SoC; for Relative reduction in rate of decline in ppFVC vs PBO: Week 26, overall; for Slope difference in rate of decline in FVC, 60 mg - PBO: adjusted for age, gender, height
# Method: A total of 278 participants with IPF were randomized and 276 participants were treated as of the final analyses data cut-off (4 Aug. 2022). Male and female participants […] with IPF and percent predicted forced vital capacity (ppFVC) […] and percent predicted DLCO (ppDLCO)≥25%; diagnosed within 7 years of screening; having a centrally-read chest HRCT obtained at screening that was consistent with UIP or probable UIP, or having a lung biopsy consistent with UIP, were eligible to enter the study. The mean baseline ppFVC for all subjects was 76.5%. In the primary IPF cohort, participants were randomized (1:1:1) to receive 30 mg or 60 mg Compound A or placebo (PBO) twice daily for 26 weeks. Participants were stratified by standard of care (SoC) IPF therapy (pirfenidone versus nintedanib versus none) and region (Japan versus Rest of World) at randomization.
# The primary objective of the study was to determine the rate of change in ppFVC from baseline to Week 26. The primary objective was evaluated with a two estimand framework to handle the intercurrent event of dose reduction to 10 mg BID or matching PBO when pre-specified low BP criteria is met. The primary estimand is adopted to estimate treatment effect when dose reduction is implemented. The supplementary estimand is adopted to estimate the effect of treatment without dose reduction.
# Analysis Strategy: The primary estimand was to evaluate the efficacy of Compound A at 30 mg or 60 mg twice daily, compared to PBO in IPF participants who met the enrollment criteria, with or without use of SoC. The rate of decline in ppFVC (%) from baseline to Week 26 was compared using the difference between each dose and PBO as a population level summary regardless of dose reduction or treatment discontinuation for any reason (treatment policy strategy).
# Analysis Strategy: The supplementary estimand for the primary objective is to evaluate the efficacy of Compound A at 30 mg or 60 mg twice daily without dose reduction, compared to the PBO in IPF subjects who met the enrollment criteria, with or without use of SoC. The rate of decline in ppFVC (%) from baseline to Week 26 has been compared using the difference between each dose and PBO as a population level summary regardless of treatment discontinuation for any reason (treatment policy strategy). In the event of dose reduction, data collected after dose reduction will not be considered relevant to the treatment effect of interest and therefore, will be treated as missing (while-on-treatment strategy).
# [2] = tested on: participants with PPF; test: Phase 2 study, PPF cohort: efficacy (ppFVC, FVC); format: in vivo, human; conditions: for Difference (S.E.) in rate of decline in FVC (% Predicted), 30 mg - placebo: 30 mg BID
# Method: A total of 123 participants with PPF were randomized. Participants (age ≥21 years) were randomized (1:1:1) to receive 30 mg or 60 mg Compound A or PBO twice daily for 26 weeks. […] Immunosuppressive medications (mycophenolate mofetil, mycophenolic acid, azathioprine and/or tacrolimus) were permitted only if dosing is stable for ≥6 months prior to screening. If receiving antifibrotic agents pirfenidone or nintedanib, patients had to receive a stable dosage for ≥3 months prior to screening and during the screening period; if not receiving pirfenidone or nintedanib, patients had to be naive to both drugs or not have received either 4 weeks prior to Day 1. A total of 47 (38.2%) subjects were receiving antifibrotic treatment (with or without immunosuppression therapy). Of those subjects, 34 were being treated with nintedanib and 13 with pirfenidone. Participants were stratified by usual interstitial pneumonia (UIP) pattern (presence versus absence) and background therapy (antifibrotics+/−ILD-targeted immunosuppression versus ILD-targeted immunosuppression alone versus none). UIP pattern was present in 52% of subjects and unclassifiable ILD was the most common disease categorization.
# The study was not powered to detect statistical significance (no formal testing). No target effect size was defined in the study design. There were two estimand approaches for analysis: • Treatment Policy: Effect of treatment with dose reduction as part of treatment regimen.
# While-On Treatment: Effect of treatment without dose reduction.
# The main efficacy endpoint, rate of FVC decline (in % of predicted) from baseline to wk-26 in the PPF cohort, was estimated using a linear mixed-effects model utilizing all FVC timepoints. It was analyzed under a primary estimand (utilizing all data, treatment policy strategy), and under supplementary estimand (utilizing all data up to the point of dose reduction, while-on-treatment strategy). Analysis was performed in the overall population as well as in sub-groups by 1) background anti-fibrotic treatment or not 2) UIP radiographic pattern (presence or not). The mean baseline ppFVC was 66.7% for the PPF cohort.
# [3] = 60 mg BID, baseline to Week 26, No SoC, supplementary estimand
# [4] = 60 mg BID, baseline to Week 26, overall, primary estimand
# [5] = 60 mg BID, baseline to Week 26, overall, supplementary estimand
smiles,measurement,setting,value
"CCCN(C)C(=O)OCc1c(-c2ccc(O[C@H]3CCC[C@H](C(=O)O)C3)c(C)n2)nnn1C [Compound A, (1S,3S)-3-((2-methyl-6-(1-methyl-5-(((methyl(propyl)carbamoyl)-oxy)methyl)-1H-1,2,3-triazol-4-yl)pyridin-3-yl)oxy)cyclohexane-1-carboxylic acid]","Acute exacerbations of lung fibrosis, patients",[1]; 30 mg BID,3 n
same,"Efficacy versus PBO (ppFVC, FVC)",[1]; 30 mg BID,did not demonstrate efficacy compared to PBO
same,Rate of change in ppFVC over 26 weeks,"[1]; 30 mg BID, treatment policy strategy",−2.8%
same,Rate of change in ppFVC over 26 weeks,"[1]; 30 mg BID, while-on-treatment strategy",−3.2%
same,"Acute exacerbations of lung fibrosis, patients",[1]; 60 mg BID,1 n
same,Relative treatment benefit in ppFVC decline vs PBO,"[1]; 60 mg BID, Week 26, No SoC, primary estimand",113%
same,Relative treatment benefit in ppFVC decline vs PBO,"[1]; 60 mg BID, Week 26, No SoC, supplementary estimand",123%
same,Relative treatment benefit in ppFVC decline vs PBO,"[1]; 60 mg BID, Week 26, on background SoC, primary estimand",39%
same,Relative treatment benefit in ppFVC decline vs PBO,"[1]; 60 mg BID, Week 26, on background SoC, supplementary estimand",44%
same,"Efficacy versus PBO (ppFVC, FVC)",[1]; 60 mg BID,demonstrated favorable treatment responses versus PBO
same,Relative reduction in rate of decline in ppFVC vs PBO,"[1]; 60 mg BID, primary estimand (treatment policy)",54%
same,Relative reduction in rate of decline in ppFVC vs PBO,"[1]; 60 mg BID, supplementary estimand (while-on-treatment)",62%
same,"Slope difference in rate of decline in ppFVC, 60 mg - PBO","[1]; 60 mg BID, baseline to Week 26, No SoC, primary estimand",2.01±1.7% and 2.01%
same,"Estimated rate of decline in ppFVC, slope",[1]; [3],0.471
same,"Slope difference in rate of decline in ppFVC, 60 mg - PBO",[1]; [3],2.55±1.73% and 2.55%
same,"Estimated rate of decline in ppFVC, slope","[1]; 60 mg BID, baseline to Week 26, SoC, supplementary estimand",−1.772
same,"Slope difference in rate of decline in ppFVC, 60 mg - PBO","[1]; 60 mg BID, baseline to Week 26, on background SoC, primary estimand",1.22±0.87% and 1.22%
same,"Slope difference in rate of decline in ppFVC, 60 mg - PBO","[1]; 60 mg BID, baseline to Week 26, on background SoC, supplementary estimand",1.41±0.89% and 1.41%
same,"Slope of decline in FVC, 60 mg arm",[1]; [4],-54.3 ± 20.76 mL
same,"Slope difference in rate of decline in ppFVC, 60 mg - PBO","[1]; 60 mg BID, baseline to Week 26, overall, primary estimand (treatment policy)",1.45±0.81% and 1.4% and 1.45%
same,"Slope difference in rate of decline in FVC, 60 mg - PBO",[1]; [4],46.9 ± 29.14 mL and 46.9 mL
same,"Estimated rate of decline in ppFVC, slope",[1]; [5],−1.1% and −1.08%
same,"Slope of decline in FVC, 60 mg arm",[1]; [5],-47.2 ± 20.92 mL
same,"Slope difference in rate of decline in ppFVC, 60 mg - PBO","[1]; 60 mg BID, baseline to Week 26, overall, supplementary estimand (while-on-treatment)",1.77±0.82% and 1.8% and 1.77%
same,"Slope difference in rate of decline in FVC, 60 mg - PBO",[1]; [5],61.4 mL
same,Posterior probability of a positive treatment difference vs placebo (Bayesian analysis),"[1]; 60 mg BID, under both estimand strategies",> 95%
same,Adjusted mean treatment difference in absolute change in FVC vs placebo,"[1]; 60 mg BID, week 26",45.5 mL
same,"Difference (S.E.) in rate of decline in FVC (% Predicted), 30 mg - placebo","[2]; UIP absent, primary estimand (treatment policy)",2.25 (2.13) % Predicted
same,"Difference (S.E.) in rate of decline in FVC (% Predicted), 30 mg - placebo","[2]; UIP absent, supplementary estimand (while on treatment)",2.26 (2.28) % Predicted
same,"Difference (S.E.) in rate of decline in FVC (% Predicted), 30 mg - placebo","[2]; UIP present, primary estimand (treatment policy)",0.88 (1.6) % Predicted
same,"Difference (S.E.) in rate of decline in FVC (% Predicted), 30 mg - placebo","[2]; UIP present, supplementary estimand (while on treatment)",1.28 (1.61) % Predicted
same,"Difference (S.E.) in rate of decline in FVC (% Predicted), 30 mg - placebo","[2]; not receiving antifibrotic treatment, primary estimand (treatment policy)",1.28 (1.63) % Predicted
same,"Difference (S.E.) in rate of decline in FVC (% Predicted), 30 mg - placebo","[2]; not receiving antifibrotic treatment, supplementary estimand (while on treatment)",1.34 (1.66) % Predicted
same,"Difference (S.E.) in rate of decline in FVC (% Predicted), 30 mg - placebo","[2]; overall, primary estimand (treatment policy)",1.57 (1.29) % Predicted
same,"Difference (S.E.) in rate of decline in FVC (% Predicted), 30 mg - placebo","[2]; overall, supplementary estimand (while on treatment)",1.78 (1.34) % Predicted
same,"Difference (S.E.) in rate of decline in FVC (% Predicted), 30 mg - placebo","[2]; receiving antifibrotic treatment, primary estimand (treatment policy)",1.99 (2.12) % Predicted
same,"Difference (S.E.) in rate of decline in FVC (% Predicted), 30 mg - placebo","[2]; receiving antifibrotic treatment, supplementary estimand (while on treatment)",2.58 (2.25) % Predicted
same,Dose response of efficacy (ppFVC decline),[2]; 30 mg and 60 mg BID,Clear dose response
same,"Difference (S.E.) in rate of decline in FVC (% Predicted), 60 mg - placebo","[2]; 60 mg BID, UIP absent, primary estimand (treatment policy)",3.81 (2.02) % Predicted
same,"Difference (S.E.) in rate of decline in FVC (% Predicted), 60 mg - placebo","[2]; 60 mg BID, UIP absent, supplementary estimand (while on treatment)",3.80 % Predicted and 3.8 (2.17) % Predicted
same,"Difference (S.E.) in rate of decline in FVC (% Predicted), 60 mg - placebo","[2]; 60 mg BID, UIP present, primary estimand (treatment policy)",2.49 (1.61) % Predicted
same,"Difference (S.E.) in rate of decline in FVC (% Predicted), 60 mg - placebo","[2]; 60 mg BID, UIP present, supplementary estimand (while on treatment)",2.12 % Predicted and 2.12 (1.62) % Predicted
same,"Difference (S.E.) in rate of decline in FVC (% Predicted), 60 mg - placebo","[2]; 60 mg BID, not receiving antifibrotic treatment, primary estimand (treatment policy)",2.85 (1.6) % Predicted
same,"Difference (S.E.) in rate of decline in FVC (% Predicted), 60 mg - placebo","[2]; 60 mg BID, not receiving antifibrotic treatment, supplementary estimand (while on treatment)",2.61 % Predicted and 2.61 (1.63) % Predicted
same,"Difference (S.E.) in rate of decline in FVC (% Predicted), 60 mg - placebo","[2]; 60 mg BID, overall, primary estimand (treatment policy)",3.2 % Predicted and 3.15 (1.27) % Predicted
same,"Difference (S.E.) in rate of decline in FVC (% Predicted), 60 mg - placebo","[2]; 60 mg BID, overall, supplementary estimand (while on treatment)",2.9 % Predicted and 2.94 % Predicted and 2.94 (1.32) % Predicted
same,"Difference (S.E.) in rate of decline in FVC (% Predicted), 60 mg - placebo","[2]; 60 mg BID, receiving antifibrotic treatment, primary estimand (treatment policy)",3.74 (2.1) % Predicted
same,"Difference (S.E.) in rate of decline in FVC (% Predicted), 60 mg - placebo","[2]; 60 mg BID, receiving antifibrotic treatment, supplementary estimand (while on treatment)",3.28 % Predicted and 3.28 (2.21) % Predicted
same,Adjusted mean treatment difference in absolute change in FVC vs placebo,"[2]; 60 mg BID, week 26",87.4 mL
same,Consistency of efficacy across sub-groups,[2]; irrespective of background antifibrotics or of UIP pattern,Efficacy consistent in all sub-groups
